Experimental data taken from patent US8343913B1, “Hsp90, buffering and drug resistance” (priority 2004, dated 2013).
“Also recorded” adds a separate entry of the source.

Columns and labels:
S. cerevisiae [1] = assay: Fluconazole MIC test (broth microdilution) with Hsp90 or calcineurin inhibitors; type: cell-based, Saccharomyces cerevisiae
Method: (§1) Cell densities of overnight cultures were determined and dilutions were prepared such that ˜10^3 cells were inoculated into each well. Radicicol (RAD, A.G. Scientific, Inc.) and geldanamycin (GdA, Alexis Biochemicals) were employed to inhibit Hsp90 at the concentrations indicated in the figure legends (1-5 μM). Cyclosporin A (CsA, CalBiochem) was employed to inhibit calcineurin at a concentration of 20 μM. Dimethyl sulfoxide (DMSO, Sigma-Aldrich Co.) was the solvent for RAD, GdA, and CsA. Thus, the maximum final DMSO concentration (0.14%) was included in FL MIC tests performed in the absence of RAD, GdA, or CsA to control for any solvent effects.
(§2) After 48 hours, plates were sealed with a clear film (Axygen Scientific), re-suspended by agitation, and absorbance was determined at 595 nm with the Multiskan Ascent photometer (Thermo Labsystems, Thermo Electron Corporation). Absorbance values were corrected for background from the corresponding medium. MICs were determined as the concentration of FL that inhibits fungal growth by 50% relative to the FL-free growth control. The MIC of each strain was tested at least two independent times in duplicate. Most strains were tested in rich medium (half-strength YPD) and SD medium. C. albicans clinical isolates were also tested in the synthetic defined medium that is the standard for clinical testing, RPMI (9).

C. albicans [2] = settings: synthetic defined media; previous studies; cited from earlier work
C. albicans [3] = assay: Fluconazole MIC test (broth microdilution); type: cell-based, Candida albicans; settings: CAI4 and CaERG3/erg3
Method: as §1
as §2, with “MICs were determined as the concentration of FL that inhibits fungal growth by 50% relative to the FL-free growth control.” left out

S. cerevisiae [4] = assay: Serial cell dilution (spotting) assay with or without fluconazole; type: cell-based, Saccharomyces cerevisiae; settings: GdA 5 μM or RAD 1 μM; 64 μg/ml fluconazole; rich medium, 30° C.; concordant by MIC testing
Method: FIG. 4. Hsp90 and calcineurin are required for FL resistance acquired through diverse mutations. […] Top two panels, deletion mutants. Bottom panel, control strains obtained by rapid (R1-3) and gradual (G1-3) selection. (A) Hsp90 was inhibited by GdA (5 μM) or RAD (1 μM), as indicated. (B) Calcineurin was inhibited by cyclosporin A (CsA, 20 μM).
(§3) Strains were grown to saturation in SD medium and cell concentrations were standardized based on optical density. Five-fold dilutions, starting from ˜4×10^6 cells/ml, were spotted on media, as indicated in the figure legends, using a spotter (Frogger, V&P Scientific, Inc). The plates were photographed after 2-3 days in the dark at the indicated temperature. For all spotting assays in which Hsp90 or calcineurin inhibitors were employed, the corresponding plates without these inhibitors was supplemented with the maximum final concentration of DMSO used (0.14%), as a solvent control.

C. albicans [5] = assay: Selection of fluconazole-resistant mutants on plates; type: cell-based, Candida albicans; settings: 128 μg/ml fluconazole and 1 μM RAD; CAI4 and CaERG3/erg3; 7 days, 30° C.
Method: Strains of C. albicans were grown at 30° C. in SD prior to plating ˜10^4 cells on SD plates with 128 μg/ml FL or with both 128 μg/ml FL and 1 μM RAD. Plates were photographed after 7 days at 30° C. in the dark.

C. albicans [6] = assay: Serial cell dilution (spotting) assay, growth with RAD; type: cell-based, Candida albicans; settings: 1 μM RAD; CAI4 and CaERG3/erg3; SD medium, 30° C., two days
Method: Serial dilutions of CAI4 and CaERG3/erg3 were spotted on SD medium (upper panel) and medium supplemented with 1 μM RAD (bottom panel). Plates were photographed after two days at 30° C. in the dark.
as §3

[7] = system: A. terreus soil isolate ATCC 10020; assay: Etest strip drug resistance; type: cell-based, Aspergillus terreus; settings: rich medium, 35° C., 36 hours
Method: FIG. 6. Hsp90 potentiates resistance to different drugs in C. albicans and A. terreus. […] Plates contained the Hsp90 inhibitor RAD (5 μM) or the calcineurin inhibitor CsA (20 μM). The MIC value is where the inhibition ellipse intersects the strip.
Resistance of C. albicans clinical isolate T118 and A. terreus soil isolate ATCC 10020 to FL, voriconazole (VO), and caspofungin (CS) was determined with Etest strips (AB Biodisk) on rich medium (half-strength YPD). For C. albicans, standardized inoculum was prepared as described above and ˜10^5 cells were plated on medium with the Hsp90 inhibitor RAD (5 μM), the calcineurin inhibitor CsA (20 μM), or the solvent control (0.14% DMSO), prior to application of a test strip. Plates were photographed after 36 hours at 30° C. in the dark. For A. terreus, inoculum was prepared according to a standard protocol (15) and ˜10^5 conidia were plated prior to application of a test strip. Plates were photographed after 36 hours at 35° C. in the dark.

[8] = GdA 5 μM or RAD 5 μM, SD medium, 30° C.

OC(Cn1cncn1)(Cn1cncn1)c1ccc(F)cc1F [fluconazole]
fluconazole concentration at which growth is completely arrested (S. cerevisiae [1]; all strains (Lo90, Re90, Hi90), SD medium, 23° C.): 16 µg/mL | fluconazole sensitivity of clinical isolate T118 (C. albicans [2]): sensitive | fluconazole concentration at which growth is completely arrested (C. albicans [3]): 16 µg/mL

C[C@@H]1C[C@H]2O[C@@H]2/C=C\C=C\C(=O)Cc2c(Cl)c(O)cc(O)c2C(=O)O1 [RAD, radicicol]
effect on fluconazole resistance of eleven deletion mutants (S. cerevisiae [4]): reduced the fluconazole resistance in all of them | colonies recovered on selection plates with fluconazole plus RAD (C. albicans [5]): no colonies were recovered | effect of inhibitor alone on growth (S. cerevisiae [1]; GdA 5 μM or RAD 5 μM, 0 μg/ml fluconazole, SD medium, 30° C.): did not impair growth on their own | effect on fluconazole resistance of G1-3 strains (gradual selection) (S. cerevisiae [1]; [8]): neither GdA nor RAD altered resistance | effect on fluconazole resistance of R1-3 strains (rapid selection) (S. cerevisiae [1]; [8]): abolished fluconazole resistance | effect on fluconazole sensitivity of progenitor strains (S. cerevisiae [1]; [8]): had no effect | effect on growth in the absence of fluconazole (C. albicans [6]): does not impair growth; also recorded: had no effect on growth

C[C@@H](c1ncncc1F)[C@](O)(Cn1cncn1)c1ccc(F)cc1F [voriconazole]
voriconazole resistance of FLR strains (S. cerevisiae [1]; all FLR strains obtained by rapid fluconazole selection): resistant | sensitivity of A. terreus to voriconazole relative to fluconazole [7]: much more sensitive to this azole than to fluconazole
